Assay results published in PubChem BioAssay (NCI).
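Dose response: 5 concentrations. Exposure: 48 h. Format: 96-well plates. Endpoint: linear interpolation; highest concentration if not reached. Definition used: TGI = concentration required for complete inhibition of growth.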

Legend:
Assay in all cases: NCI anticancer screen, dose series, 48 h
786-0 renal = system: 786-0 renal
A498 renal = system: A498 renal
A549 NSCLC = system: A549 NSCLC
ACHN renal = system: ACHN renal
BT-549 breast = system: BT-549 breast
CAKI-1 renal = system: CAKI-1 renal
CCRF-CEM leukemia = system: CCRF-CEM leukemia
COLO 205 colon = system: COLO 205 colon
DU-145 prostate = system: DU-145 prostate
EKVX NSCLC = system: EKVX NSCLC
HCC-2998 colon = system: HCC-2998 colon
HCT-116 colon = system: HCT-116 colon
HCT-15 colon = system: HCT-15 colon
HL-60(TB) leukemia = system: HL-60(TB) leukemia
HOP-62 NSCLC = system: HOP-62 NSCLC
HOP-92 NSCLC = system: HOP-92 NSCLC
HS 578T breast = system: HS 578T breast
HT29 colon = system: HT29 colon
IGROV1 ovarian = system: IGROV1 ovarian
K-562 leukemia = system: K-562 leukemia
KM12 colon = system: KM12 colon
LOX IMVI melanoma = system: LOX IMVI melanoma
M14 melanoma = system: M14 melanoma
MALME-3M melanoma = system: MALME-3M melanoma
MCF7 breast = system: MCF7 breast
MDA-MB-231 breast = system: MDA-MB-231 breast
MDA-MB-435 = system: MDA-MB-435
MDA-N = system: MDA-N
MOLT-4 leukemia = system: MOLT-4 leukemia
NCI-H23 lung = system: NCI-H23 lung
NCI-H460 lung = system: NCI-H460 lung
NCI-H522 lung = system: NCI-H522 lung
NCI/ADR-RES ovarian = system: NCI/ADR-RES ovarian
OVCAR-3 ovarian = system: OVCAR-3 ovarian
OVCAR-4 ovarian = system: OVCAR-4 ovarian
OVCAR-5 ovarian = system: OVCAR-5 ovarian
OVCAR-8 ovarian = system: OVCAR-8 ovarian
PC-3 prostate = system: PC-3 prostate
RPMI-8226 leukemia = system: RPMI-8226 leukemia
RXF 393 renal = system: RXF 393 renal
SF-268 CNS = system: SF-268 CNS
SF-295 CNS = system: SF-295 CNS
SF-539 CNS = system: SF-539 CNS
SK-MEL-2 melanoma = system: SK-MEL-2 melanoma
SK-MEL-28 melanoma = system: SK-MEL-28 melanoma
SK-MEL-5 melanoma = system: SK-MEL-5 melanoma
SK-OV-3 ovarian = system: SK-OV-3 ovarian
SN12C renal = system: SN12C renal
SNB-19 CNS = system: SNB-19 CNS
SNB-75 CNS = system: SNB-75 CNS
SR leukemia = system: SR leukemia
SW-620 colon = system: SW-620 colon
T-47D breast = system: T-47D breast
TK-10 renal = system: TK-10 renal
U251 CNS = system: U251 CNS
UACC-257 melanoma = system: UACC-257 melanoma
UACC-62 melanoma = system: UACC-62 melanoma
UO-31 renal = system: UO-31 renal
NCI-H226 lung = system: NCI-H226 lung

With `CC1(O)C(=O)OC2CC([C@]3(O)CCC4[C@@H]5C[C@H]6O[C@]67[C@@H](O)C=CC(=O)[C@]7(C)C5CC[C@@]43C)C1(C)C2` (stereo not given in full) the TGI (786-0 renal) was 25.6 µM, the TGI (A498 renal) was > 100 µM and the TGI (A549 NSCLC) was > 100 µM. The TGI (ACHN renal) was 73.8 µM, the TGI (BT-549 breast) was 26.1 µM and the TGI (CAKI-1 renal) was 25.4 µM. For the same compound, the TGI (CCRF-CEM leukemia) was 9.54 µM, the TGI (COLO 205 colon) was 20.7 µM and the TGI (DU-145 prostate) was 75.2 µM. For the same compound, the TGI (EKVX NSCLC) was > 100 µM, the TGI (HCC-2998 colon) was > 100 µM and the TGI (HCT-116 colon) was 23.1 µM. The TGI (HCT-15 colon) was 51.9 µM, the TGI (HL-60(TB) leukemia) was 19.9 µM and the TGI (HOP-62 NSCLC) was > 100 µM. For the same compound, the TGI (HOP-92 NSCLC) was 10.9 µM, the TGI (HS 578T breast) was > 96.7 µM and the TGI (HT29 colon) was 36.5 µM. For the same compound, the TGI (IGROV1 ovarian) was > 31.6 µM, the TGI (K-562 leukemia) was > 31.6 µM and the TGI (KM12 colon) was > 64.1 µM. For the same compound, the TGI (LOX IMVI melanoma) was 15.7 µM, the TGI (M14 melanoma) was 26.4 µM and the TGI (MALME-3M melanoma) was 16.6 µM. The TGI (MCF7 breast) was > 33 µM, the TGI (MDA-MB-231 breast) was 36 µM and the TGI (MDA-MB-435) was 33.2 µM. The TGI (MDA-N) was 17.9 µM, the TGI (MOLT-4 leukemia) was 31.6 µM and the TGI (NCI-H23 lung) was 25.1 µM. For the same compound, the TGI (NCI-H460 lung) was > 80.5 µM, the TGI (NCI-H522 lung) was 4.85 µM and the TGI (NCI/ADR-RES ovarian) was > 100 µM. For the same compound, the TGI (OVCAR-3 ovarian) was 35 µM, the TGI (OVCAR-4 ovarian) was 26.5 µM and the TGI (OVCAR-5 ovarian) was 74.1 µM. For the same compound, the TGI (OVCAR-8 ovarian) was > 100 µM, the TGI (PC-3 prostate) was 50.5 µM and the TGI (RPMI-8226 leukemia) was 19.7 µM. The TGI (RXF 393 renal) was 13.2 µM, the TGI (SF-268 CNS) was > 92 µM and the TGI (SF-295 CNS) was > 100 µM. The TGI (SF-539 CNS) was 44.5 µM, the TGI (SK-MEL-2 melanoma) was 28.6 µM and the TGI (SK-MEL-28 melanoma) was 26 µM. For the same compound, the TGI (SK-MEL-5 melanoma) was 45.3 µM, the TGI (SK-OV-3 ovarian) was > 100 µM and the TGI (SN12C renal) was 63.4 µM. The TGI (SNB-19 CNS) was > 100 µM, the TGI (SNB-75 CNS) was > 94.1 µM and the TGI (SR leukemia) was 10.6 µM. It also gave a TGI (SW-620 colon) of 11.1 µM, a TGI (T-47D breast) of 18.5 µM and a TGI (TK-10 renal) of 23.2 µM. The TGI (U251 CNS) was > 72.6 µM, the TGI (UACC-257 melanoma) was 26.6 µM and the TGI (UACC-62 melanoma) was 30.2 µM. For the same compound, the TGI (UO-31 renal) was > 85.3 µM.

With `Cc1nnc2sc(-c3ccc([N+](=O)[O-])o3)nn12` the TGI (786-0 renal) was 22 µM, the TGI (A498 renal) was > 100 µM and the TGI (A549 NSCLC) was > 100 µM. The TGI (ACHN renal) was 23.2 µM, the TGI (BT-549 breast) was 22.5 µM and the TGI (CAKI-1 renal) was 22.3 µM. For the same compound, the TGI (CCRF-CEM leukemia) was > 100 µM, the TGI (COLO 205 colon) was 27.5 µM and the TGI (DU-145 prostate) was 29.8 µM. It also gave a TGI (EKVX NSCLC) of 37.7 µM, a TGI (HCC-2998 colon) of 25 µM and a TGI (HCT-116 colon) of 20.7 µM. The TGI (HCT-15 colon) was 18.2 µM, the TGI (HL-60(TB) leukemia) was 8.58 µM and the TGI (HOP-62 NSCLC) was 28.5 µM. For the same compound, the TGI (HOP-92 NSCLC) was 35.2 µM, the TGI (HS 578T breast) was > 100 µM and the TGI (HT29 colon) was 34.7 µM. For the same compound, the TGI (IGROV1 ovarian) was 29.1 µM, the TGI (K-562 leukemia) was 26.1 µM and the TGI (KM12 colon) was 33.5 µM. The TGI (LOX IMVI melanoma) was 16.1 µM, the TGI (M14 melanoma) was 21.9 µM and the TGI (MALME-3M melanoma) was 14.3 µM. It also gave a TGI (MCF7 breast) of 26.5 µM, a TGI (MDA-MB-231 breast) of 29.2 µM and a TGI (MDA-MB-435) of 17.5 µM. It also gave a TGI (MDA-N) of 19.4 µM, a TGI (MOLT-4 leukemia) of 13.5 µM and a TGI (NCI-H226 lung) of 34.5 µM. It also gave a TGI (NCI-H23 lung) of 34.4 µM, a TGI (NCI-H460 lung) of 49.4 µM and a TGI (NCI-H522 lung) of 14.3 µM. The TGI (NCI/ADR-RES ovarian) was 39 µM, the TGI (OVCAR-3 ovarian) was 25.4 µM and the TGI (OVCAR-4 ovarian) was 30.7 µM. The TGI (OVCAR-5 ovarian) was 36.7 µM, the TGI (OVCAR-8 ovarian) was 27.5 µM and the TGI (PC-3 prostate) was 27.9 µM. For the same compound, the TGI (RPMI-8226 leukemia) was 34.7 µM, the TGI (RXF 393 renal) was 25.9 µM and the TGI (SF-268 CNS) was 27 µM. It also gave a TGI (SF-295 CNS) of 31 µM, a TGI (SF-539 CNS) of 18.2 µM and a TGI (SK-MEL-2 melanoma) of 24.2 µM. It also gave a TGI (SK-MEL-5 melanoma) of 24.4 µM, a TGI (SK-OV-3 ovarian) of 32.7 µM and a TGI (SN12C renal) of 29.5 µM. It also gave a TGI (SNB-19 CNS) of 35.3 µM, a TGI (SR leukemia) of 59.6 µM and a TGI (SW-620 colon) of 23.2 µM. For the same compound, the TGI (T-47D breast) was 62.7 µM, the TGI (TK-10 renal) was 28.6 µM and the TGI (U251 CNS) was 27.9 µM. It also gave a TGI (UACC-257 melanoma) of 26.8 µM, a TGI (UACC-62 melanoma) of 22.1 µM and a TGI (UO-31 renal) of 32.6 µM.
